{
  "source": "patent US20250107543A1",
  "about": "“TREATMENT OF AGRICULTURAL, FOOD AND RELATED PRODUCTS FOR ELIMINATING CONTAMINANTS AND ENCHANCING SHELF-LIFE” (priority 2022, published 2025)",
  "key": {"Salmonella": {"system": "Salmonella", "assay": "Salmonella presence in treated whole red chilli", "conditions": "whole red chilli 12 kg's, Trial 1", "experimental": "This experiment illustrates the treatment of aerobic micro-organisms, yeast, mould, coliform, E. coli, Salmonella and fat soluble metabolites contaminated whole red chilli.\nThe data presented in Table-2 illustrate the efficacy of the present disclosure in detoxifying contaminated whole red chillies. […].\nThe red chillies were exposed with Trioxygen for 2 minutes. The products were put under pressure of trioxygen gas for a span of 9 minutes to 26 minutes. Based on the commodity characteristics, the exposure of trioxygen gas was repeated 10 times. Trioxygen gas having a capacity 500 g/h was generated by the trioxygen generator (on site) of the system with a constant oxygen flow rate and delivered to the decontamination chamber through silicon tube. The whole red chillies were then treated to heated air."}, "[1]": {"assay": "C17H12O6 content of treated groundnuts", "conditions": "groundnut", "experimental": "The data presented in Table-3 illustrates the efficiency of the system of the present disclosure in detoxifying contaminated groundnuts.\nThree sets of C17H12O6 contaminated 3 kg's, 60 kg's and 60 kg's of groundnuts were separately pre-conditioned and decontaminated in the system. In this case, groundnuts were pre-conditioned and exposed with trioxygen gas for up to 5 minutes. The products were put under pressure of trioxygen gas for a span of 9 minutes to 26 minutes. Based on the commodity characteristics, the exposure of trioxygen gas was repeated 15 times. Trioxygen gas having capacity 500 g/h was generated by the trioxygen generator of the system (on site) with a constant oxygen flow rate and delivered to the decontamination chamber through silicon tube. All 3 sets of products were heated and then analyzed for the presence of the contaminant and the results obtained are summarized in Table-3."}, "[2]": {"assay": "C17H12O6 content of treated corn", "experimental": "The data presented in Table-4 illustrates the efficiency of the system of the present disclosure in detoxifying pre-conditioned contaminated corn.\nThree sets of C17H12O6 contaminated 70 kg's of corn were separately decontaminated in the system of the present disclosure. In this case, corn samples were pre-conditioned with a pre-conditioning liquid and exposed to trioxygen gas for up to 5 minutes. The products were put under pressure of trioxygen gas for a span of 9 minutes to 26 minutes. Based on the commodity characteristics, the exposure of trioxygen gas was repeated 20 times. Trioxygen gas having capacity 500 g/h was generated by the trioxygen generator of the system (on site) with a constant oxygen flow rate and delivered to the decontamination chamber through silicon tube. All 3 sets of products were air dried and then analyzed for the presence of the contaminant and the results obtained are summarized in Table-4"}, "weevils and weevil eggs [3]": {"system": "weevils and weevil eggs", "assay": "Shelf-Life Assessment of Corn", "parameters": "key to Visual observation: Powder at the bottom of bag / Weevils/Insects / Visual observation: Pin holes on grain: ✓ Not observed; x Observed", "conditions": "for Visual observation: Pin holes on grain / Visual observation: Powder at the bottom of bag / Weevils/Insects: Treated sample", "experimental": "(§1) The data presented in Table-5 illustrates the efficiency of the system of the present disclosure in pre-conditioning and deactivation of weevils and weevil eggs results in delayed occurrence of insect infestation in grains.\n(§2) Grains such as Dry corn, Groundnut, Rice & Wheat were separately pre-conditioned and decontaminated in the system of the present disclosure. Grains were exposed to trioxygen gas for up to 5 minutes. The products were put under pressure of trioxygen gas for a span of 9 minutes to 26 minutes. Trioxygen gas having capacity 500 g/h was generated by the trioxygen generator of the system (on site) with a constant oxygen flow rate and delivered to the decontamination chamber through silicon tube. All products were treated with hot air and then analyzed for the presence of the weevils and weevil eggs the results obtained are summarized in Table-5."}, "weevils and weevil eggs [4]": {"system": "weevils and weevil eggs", "assay": "Shelf-Life Assessment of Groundnut", "parameters": "key to Visual observation: Powder at the bottom of bag / Weevils/Insects / Visual observation: Pin holes on grain: ✓ Not observed; x Observed", "conditions": "for Visual observation: Pin holes on grain / Visual observation: Powder at the bottom of bag / Weevils/Insects: Treated sample", "experimental": "as §1, §2"}, "[5]": {"assay": "Pesticide residue in treated whole red chilli: Myclobutanil", "conditions": "whole red chilli 12 kg's, Trial 1; HOCL and Trioxygen simultaneously", "from_the_text": "This experiment illustrates the treatment of whole red chilli contaminated with pesticide residues.\nThe data presented in Table-6 illustrates the efficacy of the present disclosure in detoxifying contaminated whole red chillies. Sets of whole red chillies of 12 kg's contaminated with pesticides like Azoxystrobin, Imidacloprid Novaluron and Myclobutanil were used for the experiment. An inert gas (Nitrogen & Carbon-di-oxide) were introduced into the chamber filled with the material to drive out existing air and oxygen in the chamber. Pre-conditioning was carried out with HOCL and trioxygen being introduced simultaneously in decontamination chamber with faster decontamination process in the system with a shorter timeline protocol.\nThe red chillies were exposed with HOCL and Trioxygen simultaneously for 2 minutes. The products were put under pressure of 2 bar of trioxygen gas for a span of 9 minutes to 26 minutes. Based on the commodity characteristics, the exposure of trioxygen gas was repeated 10 times. Trioxygen gas having a capacity 500 g/h was generated by the trioxygen generator (on site) of the system with a constant oxygen flow rate and delivered to the decontamination chamber through silicon tube. The whole red chillies were then treated to heated air."}},
  "data": [
    {"smiles": "O=[O+][O-]", "note": "[Trioxygen]", "values": [
      {"measurement": "Salmonella, % Reduction", "setting": "Salmonella", "value": 100, "unit": "%"},
      {"measurement": "Salmonella, Results After Treatment", "setting": "Salmonella; before treatment Present/25 g", "value": "Absent/25 g"},
      {"measurement": "C17H12O6, % Reduction", "setting": "[1]; Sr. No. 1, 3 kg's", "value": 100, "unit": "%"},
      {"measurement": "C17H12O6, % Reduction", "setting": "[1]; Sr. No. 2, 60 kg's", "value": 93, "unit": "%"},
      {"measurement": "C17H12O6, % Reduction", "setting": "[1]; Sr. No. 3, 60 kg's", "value": 64, "unit": "%"},
      {"measurement": "C17H12O6, % Reduction", "setting": "[2]; Sr. No. 1, 70 kg's", "value": 100, "unit": "%"},
      {"measurement": "C17H12O6, % Reduction", "setting": "[2]; Sr. No. 2, 70 kg's", "value": 85, "unit": "%"},
      {"measurement": "C17H12O6, % Reduction", "setting": "[2]; Sr. No. 3, 70 kg's", "value": 100, "unit": "%"},
      {"measurement": "No weevil infestation in system treated samples up to", "setting": "weevils and weevil eggs [3]", "value": "up to 6 months"},
      {"measurement": "Treatment effective in delaying infestation up to", "setting": "weevils and weevil eggs [3]", "value": "up to 6 months"},
      {"measurement": "Remarks on Weevils/Insects, Treated", "setting": "weevils and weevil eggs [3]; Post 1.5 Months", "value": "No weevils/insects"},
      {"measurement": "Remarks on Weevils/Insects, Treated", "setting": "weevils and weevil eggs [3]; Post 2 Months", "value": "No weevils/insects"},
      {"measurement": "Remarks on Weevils/Insects, Treated", "setting": "weevils and weevil eggs [3]; Post 3 Months", "value": "No weevils/insects"},
      {"measurement": "Remarks on Weevils/Insects, Treated", "setting": "weevils and weevil eggs [3]; Post 5 Months", "value": "No weevils/insects"},
      {"measurement": "Remarks on Weevils/Insects, Treated: cream coloured insect observed alive", "setting": "weevils and weevil eggs [3]; Post 6 Months", "value": 1, "unit": "cream coloured"},
      {"measurement": "Remarks on Weevils/Insects, Treated: cream coloured insect observed alive", "setting": "weevils and weevil eggs [3]; Post 7 Months", "value": 3, "unit": "cream coloured"},
      {"measurement": "Visual observation: Pin holes on grain", "setting": "weevils and weevil eggs [3]; 1.5 Months", "value": "✓"},
      {"measurement": "Visual observation: Powder at the bottom of bag", "setting": "weevils and weevil eggs [3]; 1.5 Months", "value": "✓"},
      {"measurement": "Weevils/Insects", "setting": "weevils and weevil eggs [3]; 1.5 Months", "value": "✓"},
      {"measurement": "Visual observation: Pin holes on grain", "setting": "weevils and weevil eggs [3]; 2 Months", "value": "✓"},
      {"measurement": "Visual observation: Powder at the bottom of bag", "setting": "weevils and weevil eggs [3]; 2 Months", "value": "✓"},
      {"measurement": "Weevils/Insects", "setting": "weevils and weevil eggs [3]; 2 Months", "value": "✓"},
      {"measurement": "Visual observation: Pin holes on grain", "setting": "weevils and weevil eggs [3]; 3 Months", "value": "✓"},
      {"measurement": "Visual observation: Powder at the bottom of bag", "setting": "weevils and weevil eggs [3]; 3 Months", "value": "✓"},
      {"measurement": "Weevils/Insects", "setting": "weevils and weevil eggs [3]; 3 Months", "value": "✓"},
      {"measurement": "Visual observation: Pin holes on grain", "setting": "weevils and weevil eggs [3]; 5 Months", "value": "✓"},
      {"measurement": "Visual observation: Powder at the bottom of bag", "setting": "weevils and weevil eggs [3]; 5 Months", "value": "✓"},
      {"measurement": "Weevils/Insects", "setting": "weevils and weevil eggs [3]; 5 Months", "value": "✓"},
      {"measurement": "Visual observation: Pin holes on grain", "setting": "weevils and weevil eggs [3]; 6 Months", "value": "✓"},
      {"measurement": "Visual observation: Powder at the bottom of bag", "setting": "weevils and weevil eggs [3]; 6 Months", "value": "✓"},
      {"measurement": "Weevils/Insects", "setting": "weevils and weevil eggs [3]; 6 Months", "value": "x"},
      {"measurement": "Visual observation: Pin holes on grain", "setting": "weevils and weevil eggs [3]; 7 Months", "value": "✓"},
      {"measurement": "Visual observation: Powder at the bottom of bag", "setting": "weevils and weevil eggs [3]; 7 Months", "value": "✓"},
      {"measurement": "Weevils/Insects", "setting": "weevils and weevil eggs [3]; 7 Months", "value": "x"},
      {"measurement": "Number of weevils in treated sample compared to those in control, times less", "setting": "weevils and weevil eggs [3]; at month 7", "value": 5, "unit": "times"},
      {"measurement": "Number of weevils in treated sample compared to those in control, times less", "setting": "weevils and weevil eggs [3]; at month 8", "value": 1.5, "unit": "times"},
      {"measurement": "Number of weevils in treated sample compared to those in control", "setting": "weevils and weevil eggs [3]; at month 9", "value": "No difference"},
      {"measurement": "No weevil infestation in system treated samples up to", "setting": "weevils and weevil eggs [4]", "value": "up to 6 months"},
      {"measurement": "Treatment effective in delaying infestation up to", "setting": "weevils and weevil eggs [4]", "value": "up to 6 months"},
      {"measurement": "Remarks on Weevils/Insects, Treated", "setting": "weevils and weevil eggs [4]; Post 1.5 Months", "value": "No weevils/insects"},
      {"measurement": "Remarks on Weevils/Insects, Treated", "setting": "weevils and weevil eggs [4]; Post 2 Months", "value": "No weevils/insects"},
      {"measurement": "Remarks on Weevils/Insects, Treated", "setting": "weevils and weevil eggs [4]; Post 3 Months", "value": "No weevils/insects"},
      {"measurement": "Remarks on Weevils/Insects, Treated", "setting": "weevils and weevil eggs [4]; Post 5 Months", "value": "No weevils/insects"},
      {"measurement": "Remarks on Weevils/Insects, Treated", "setting": "weevils and weevil eggs [4]; Post 6 Months", "value": "No weevils/insects"},
      {"measurement": "Remarks on Weevils/Insects, Treated: insect observed alive, buff/cream, 5 mm long", "setting": "weevils and weevil eggs [4]; Post 7 Months", "value": 1, "unit": "insect observed -"},
      {"measurement": "Visual observation: Pin holes on grain", "setting": "weevils and weevil eggs [4]; 1.5 Months", "value": "✓"},
      {"measurement": "Visual observation: Powder at the bottom of bag", "setting": "weevils and weevil eggs [4]; 1.5 Months", "value": "✓"},
      {"measurement": "Weevils/Insects", "setting": "weevils and weevil eggs [4]; 1.5 Months", "value": "✓"},
      {"measurement": "Visual observation: Pin holes on grain", "setting": "weevils and weevil eggs [4]; 2 Months", "value": "✓"},
      {"measurement": "Visual observation: Powder at the bottom of bag", "setting": "weevils and weevil eggs [4]; 2 Months", "value": "✓"},
      {"measurement": "Weevils/Insects", "setting": "weevils and weevil eggs [4]; 2 Months", "value": "✓"},
      {"measurement": "Visual observation: Pin holes on grain", "setting": "weevils and weevil eggs [4]; 3 Months", "value": "✓"},
      {"measurement": "Visual observation: Powder at the bottom of bag", "setting": "weevils and weevil eggs [4]; 3 Months", "value": "✓"},
      {"measurement": "Weevils/Insects", "setting": "weevils and weevil eggs [4]; 3 Months", "value": "✓"},
      {"measurement": "Visual observation: Pin holes on grain", "setting": "weevils and weevil eggs [4]; 5 Months", "value": "✓"},
      {"measurement": "Visual observation: Powder at the bottom of bag", "setting": "weevils and weevil eggs [4]; 5 Months", "value": "✓"},
      {"measurement": "Weevils/Insects", "setting": "weevils and weevil eggs [4]; 5 Months", "value": "✓"},
      {"measurement": "Visual observation: Pin holes on grain", "setting": "weevils and weevil eggs [4]; 6 Months", "value": "✓"},
      {"measurement": "Visual observation: Powder at the bottom of bag", "setting": "weevils and weevil eggs [4]; 6 Months", "value": "✓"},
      {"measurement": "Weevils/Insects", "setting": "weevils and weevil eggs [4]; 6 Months", "value": "✓"},
      {"measurement": "Visual observation: Pin holes on grain", "setting": "weevils and weevil eggs [4]; 7 Months", "value": "✓"},
      {"measurement": "Visual observation: Powder at the bottom of bag", "setting": "weevils and weevil eggs [4]; 7 Months", "value": "✓"},
      {"measurement": "Weevils/Insects", "setting": "weevils and weevil eggs [4]; 7 Months", "value": "x"},
      {"measurement": "Number of weevils in treated sample, times less than that in control sample", "setting": "weevils and weevil eggs [4]; at month 7", "value": 3, "unit": "times"},
      {"measurement": "Myclobutanil, % Reduction", "setting": "[5]", "value": 100, "unit": "%"}
    ]}
  ]
}
